# Laboratory results published in patent US8513381B2, “Melanocortin analogs with antimicrobial activity” (Fondazione IRCCS Ca' Granda-Ospedale Maggiore Policlinico, priority 2009, dated 2013).
# Where two headings read alike, the source gives them in different places. Non-standard residues stand in square brackets, D forms with d. Residues, ends and D or L forms follow the SMILES beside them. d2Nal = N[C@H](Cc1ccc2ccccc2c1)C(=O)O; Cha = N[C@@H](CC1CCCCC1)C(=O)O; Aic = NC1(C(=O)O)Cc2ccccc2C1; Tle = CC(C)(C)[C@H](N)C(=O)O; Ac6c = NC1(C(=O)O)CCCCC1; Ac5c = NC1(C(=O)O)CCCC1; Ac4c = NC1(C(=O)O)CCC1; Aib = CC(C)(N)C(=O)O
# Columns and labels:
# C. krusei = assay type: cell-based, Candida krusei
# Procedure: (§1) Two Candida albicans isolates were purchased from the ATCC (No. 24433 and 76615). The other yeast isolates were obtained from the collection of Fondazione Ospedale Maggiore Policlinico, Mangiagalli e Regina Elena, Milano. The collection included C. albicans (7 isolates), C. glabrata (3 isolates), and C. krusei (3 isolates). Antifungal susceptibility testing was performed using the broth microdilution method according to the NCCLS M27-A guidelines (National Committee for Clinical Laboratory Standards. 1997, Reference method for broth dilution antifungal susceptibility testing of yeasts and approved standard NCCLS document M27-A. National Committee for Clinical Laboratory Standards, Wayne, Pa.). The organisms were removed from frozen glycerol stock (10% sterile glycerol suspensions stored at −70° C.), subcultured onto Sabouraud's dextrose plates, and incubated at 35° C. After 48 h of incubation, the plates were inspected for purity. To prepare stationary growth phase yeast, a colony was taken from the agar plate and transferred into 5 mL Sabouraud-dextrose broth and incubated for 48 h at 35° C. Cells were centrifuged at 1,000×g for 10 min and the pellet was washed twice with distilled water. Cells were counted and suspended in RPMI 1640 medium buffered to pH 7.0 with 0.165 mol l^−1 morpholinepropanesulphonic acid (MOPS) buffer (Sigma) to obtain the two times test inoculum (1×10^3 to 5×10^3 CFU/mL). Each well of 96 U-shaped well-plates received 100 μl of each antifungal peptides in concentrations from 10^−4 to 7.8×10^−7 M and 100 μl of the two-times inoculum to a final yeast concentration of 0.5×10−[…] cells ml^−1
# (§2) The MIC90, i.e. the minimum inhibitory concentrations endpoint determined as 90% reduction in turbidity measured using a spectrophotometer (Titertek multiscan at 690 nm wave length).
# C. glabrata = assay type: cell-based, Candida glabrata
# Procedure: as §1, §2
# C. albicans = assay type: cell-based, Candida albicans
# Procedure: as §1, §2
# [1] = system: Staphylococcus aureus ATCC 29213; assay type: cell-based
# Procedure: (§3) The bacterial strains Pseudomonas aeruginosa ATCC 27853 and Staphylococcus aureus ATCC 29213 were grown in 2% Bacto Peptone water (Difco 1807-17-4) until growth was exponential. A standard microdilution technique with an inoculum of 2×10^6 CFU/mL was used. The minimal inhibitory concentration (MIC) of the peptides was determined in 1% Bacto Peptone water after incubation overnight at 37° C.
# [2] = system: Pseudomonas aeruginosa ATCC 27853; assay type: cell-based
# Procedure: as §3
Compound,MIC 90 at 48 hours (C. krusei),"MIC 90 at 48 hours (C. glabrata; C. glabrata 18012, 35° C.)","MIC 90 at 48 hours (C. glabrata; C. glabrata 995651, 35° C.)","MIC 90 at 48 hours (C. glabrata; C. glabrata 995667, 35° C.)",MIC 90 at 48 hours (C. albicans),"MIC 90 at 48 hours (C. albicans; C. albicans 000954, 35° C.)","MIC 90 at 48 hours (C. albicans; C. albicans 983201-R1, 35° C.)","MIC 90 at 48 hours (C. albicans; C. albicans 991185, 35° C.)","MIC 90 at 48 hours (C. albicans; C. albicans 994199, 35° C.)","MIC 90 at 48 hours (C. albicans; C. albicans 995147, 35° C.)","MIC 90 at 48 hours (C. albicans; C. albicans 995439, 35° C.)","MIC 90 at 48 hours (C. albicans; C. albicans ATCC 24433, 35° C.)","MIC 90 at 48 hours (C. albicans; C. albicans ATCC 76615, 35° C.)",MIC (minimal inhibitory concentration) [1],MIC (minimal inhibitory concentration) [2],MIC 90 at 48 hours (C. glabrata),"MIC 90 at 48 hours (C. krusei; C. krusei 995668, 35° C.)","MIC 90 at 48 hours (C. albicans; C. albicans 011587, 35° C.)","MIC 90 at 48 hours (C. krusei; C. krusei 004490, 35° C.)","MIC 90 at 48 hours (C. krusei; C. krusei 991388, 35° C.)"
"CC(C)[C@H](NC(=O)[C@H](Cc1ccccc1)NC(=O)[C@H](CCCCN)NC(=O)C(C)(C)NC(=O)[C@H](Cc1c[nH]c2ccccc12)NC(=O)[C@H](CCCNC(=N)N)NC(=O)[C@@H](Cc1ccc2ccccc2c1)NC(=O)[C@@H](N)Cc1c[nH]cn1)C(N)=O [MSH0702, H-His-D(2)-Nal-Arg-Trp-Aib-Lys-Phe-Val-NH2] (H-H[d2Nal]RW[Aib]KFV-NH2)",115 µg/mL,no,no,no,115 µg/mL,no,no,no,no,no,no,no,no,–,–,–,–,–,–,–
"CC(C)[C@H](NC(=O)[C@H](Cc1ccccc1)NC(=O)[C@H](CCCCN)NC(=O)[C@H](CC1CCCCC1)NC(=O)[C@H](Cc1c[nH]c2ccccc12)NC(=O)[C@H](CCCNC(=N)N)NC(=O)[C@@H](Cc1ccc2ccccc2c1)NC(=O)[C@@H](N)Cc1c[nH]cn1)C(N)=O [MSH0704, H-His-D(2)-Nal-Arg-Trp-Cha-Lys-Phe-Val-NH2] (H-H[d2Nal]RW[Cha]KFV-NH2)",–,–,–,–,–,–,–,–,–,–,–,–,–,31 µg/mL,61 µg/mL,122 µg/mL,–,–,–,–
"CC(C)[C@H](NC(=O)[C@H](Cc1ccccc1)NC(=O)[C@H](CCCCN)NC(=O)C1(NC(=O)[C@H](Cc2c[nH]c3ccccc23)NC(=O)[C@H](CCCNC(=N)N)NC(=O)[C@@H](Cc2ccc3ccccc3c2)NC(=O)[C@@H](N)Cc2c[nH]cn2)CCCC1)C(N)=O [MSH0705, H-His-D(2)-Nal-Arg-Trp-Cpa-Lys-Phe-Val-NH2] (H-H[d2Nal]RW[Ac5c]KFV-NH2)",117 µg/mL,no,no,no,–,–,–,–,–,–,–,–,–,–,–,–,–,–,–,–
"CC(C)[C@H](NC(=O)[C@H](Cc1ccccc1)NC(=O)[C@H](CCCCN)NC(=O)[C@@H](NC(=O)[C@H](Cc1c[nH]c2ccccc12)NC(=O)[C@H](CCCNC(=N)N)NC(=O)[C@@H](Cc1ccc2ccccc2c1)NC(=O)[C@@H](N)Cc1c[nH]cn1)C(C)(C)C)C(N)=O [MSH0707, H-His-D(2)-Nal-Arg-Trp-tBuGly-Lys-Phe-Val-NH2] (H-H[d2Nal]RW[Tle]KFV-NH2)",118 µg/mL,no,no,no,118 µg/mL,no,no,no,no,no,–,no,no,–,–,–,no,no,–,–
"CC(C)[C@H](NC(=O)[C@H](Cc1ccccc1)NC(=O)[C@H](CCCCN)NC(=O)C1(NC(=O)[C@H](Cc2c[nH]c3ccccc23)NC(=O)[C@H](CCCNC(=N)N)NC(=O)[C@@H](Cc2ccc3ccccc3c2)NC(=O)[C@@H](N)Cc2c[nH]cn2)Cc2ccccc2C1)C(N)=O [MSH0708, H-His-D(2)-Nal-Arg-Trp-Aic-Lys-Phe-Val-NH2] (H-H[d2Nal]RW[Aic]KFV-NH2)",–,–,–,–,–,–,–,–,–,–,–,–,–,31 µg/mL,61 µg/mL,123 µg/mL,–,–,–,–
"CC(C)[C@H](NC(=O)[C@H](Cc1ccccc1)NC(=O)[C@H](CCCCN)NC(=O)C1(NC(=O)[C@H](Cc2c[nH]c3ccccc23)NC(=O)[C@H](CCCNC(=N)N)NC(=O)[C@@H](Cc2ccc3ccccc3c2)NC(=O)[C@@H](N)Cc2c[nH]cn2)CCC1)C(N)=O [MSH0709, H-His-D(2)-Nal-Arg-Trp-Cybu-Lys-Phe-Val-NH2] (H-H[d2Nal]RW[Ac4c]KFV-NH2)",117 µg/mL,no,no,no,117 µg/mL,no,no,–,–,no,–,no,no,–,–,–,–,–,–,–
"CC(C)[C@H](NC(=O)[C@H](Cc1ccccc1)NC(=O)[C@H](CCCCN)NC(=O)C1(NC(=O)[C@H](Cc2c[nH]c3ccccc23)NC(=O)[C@H](CCCNC(=N)N)NC(=O)[C@@H](Cc2ccc3ccccc3c2)NC(=O)[C@@H](N)Cc2c[nH]cn2)CCCCC1)C(N)=O [MSH0712, H-His-D(2)-Nal-Arg-Trp-Aoca-Lys-Phe-Val-NH2] (H-H[d2Nal]RW[Ac6c]KFV-NH2)",–,no,no,no,60 µg/mL,–,–,–,–,–,–,–,–,–,–,–,–,–,–,–
"CC(C)[C@H](NC(=O)[C@H](Cc1ccccc1)NC(=O)[C@H](CCCCN)NC(=O)[C@H](Cc1ccccc1)NC(=O)[C@H](Cc1c[nH]c2ccccc12)NC(=O)[C@H](CCCNC(=N)N)NC(=O)[C@@H](Cc1ccc2ccccc2c1)NC(=O)[C@@H](N)Cc1c[nH]cn1)C(N)=O [MSH0713, H-His-D(2)-Nal-Arg-Trp-Phe-Lys-Phe-Val-NH2] (H-H[d2Nal]RWFKFV-NH2)",122 µg/mL,no,no,no,–,–,–,–,–,–,–,–,–,–,–,–,no,–,–,–
H-His-D(2)-Nal-Arg-Trp-Acpc-Lys-Phe-Val-NH2 [MSH0706],–,no,no,–,–,no,no,no,no,no,no,no,no,–,–,–,no,no,no,no
H-His-D(2)-Nal-Arg-Trp-Ala-Lys-Phe-Val-NH2 [MSH0703],–,no,no,no,–,no,no,no,no,no,no,no,no,–,–,–,no,no,no,no
H-His-D(2)-Nal-Arg-Trp-Gly-Gly-Lys-Phe-Val-NH2 [MSH0701],–,no,no,no,–,no,no,no,no,no,no,no,no,–,–,–,no,no,no,no
H-His-D(2)-Nal-Arg-Trp-β-AA-Lys-Phe-Val-NH2 [MSH0710],–,no,no,no,–,no,no,no,no,no,no,no,no,–,–,–,no,no,no,no
